What was measured:
[1] = 500IU RRR-α-tocopherol administered to human subject; cited from earlier work
[2] = tested on: LDL; experiment: Oxidative degeneration LDL assay using azo-compound (V-70); format: biochemical, human; settings: for anti-oxidative activity on LDL (lag-time): added to LDL concentration-dependently, final concentration 60-1000 ng; for lag-time (time during which conjugate diene production was inhibited): final concentration 1 μg, LDL from eight male and female adults, V-70 200 μM, about 70 μg/mL LDL protein, control 88.1±29.4 minutes
Protocol: Blood collected from human subject was centrifuged at 3000 rpm for 10 minutes to isolate plasma. Next, KBr was added to 1.1 mL of the plasma which was then subjected to density gradient ultra-centrifugation (Single spin differential centrifugation) to collect LDL. After the determination of protein concentration, LDL was prepared by PBS.
In vitro assay of oxidatively denatured LDL was performed according to the method described by Kondo, et al. This method involves use of 2,2′-azobis([…]-2,4-dimethylvaleronitrile; V-70) as the oxidation starter. Final concentration of V-70 was 200 μM for about 70 μg/mL of LDL protein concentration, and production of the conjugate dienes of LDL was assayed at 234 nm for 300 minutes. The time during which conjugate diene production was inhibited was indicated as lag-time. The efficacy of each antioxidants was evaluated by adding the compound and V-70 at the same time and determining the lag-time caused by the compound.

Row | SMILES | plasma α-CEHC concentration [1] [pmol/mL] | anti-oxidative activity on LDL (lag-time) [2] | lag-time (time during which conjugate diene production was inhibited) [2] [min] | extension rate of lag-time (control = 1), FIG. 1 ([2]; final concentration 60 ng, close to 200 pmol/mL (lower concentration)) | anti-oxidative effects on LDL, comparison between compounds ([2]; final concentration 1 μg (higher concentration))
1 | Cc1c(C)c2c(c(C)c1O)CC[C@@](C)(CCC[C@H](C)CCC[C@H](C)CCCC(C)C)O2 [RRR-α-tocopherol] | 200 | – | – | – | –
2 | Cc1c(C)c2c(c(C)c1O)CCC(C)(CCC(=O)O)O2 (stereo not drawn) [α-CEHC, 2,5,7,8-Tetramethyl-2-(β-carboxyethyl)-6-hydroxychromane] | – | prolonged lag-times concentration-dependently | 190.8 ± 65.1 | – | –
3 | Cc1c(O)cc2c(c1C)OC(C)(CCC(=O)O)CC2 (stereo not drawn) [γ-CEHC, 2,7,8-trimethyl-2-(β-carboxyethyl)-6-hydroxychromane] | – | prolonged lag-times concentration-dependently | 263.1 ± 114.8 | greater increase in extension rate of lag-time than those of α-CEHC and Trolox groups | significantly stronger anti-oxidative effects on LDL than α-CEHC did

Source: patent US20020040053A1, “Antioxidant containing vitamin E metabolite” (priority 2000, published 2002)
